# According to ChEMBL document CHEMBL4330166, “Euphorhelipanes A and B, Triglyceride-Lowering Euphorbia Diterpenoids with a Bicyclo[4.3.0]nonane Core from Euphorbia helioscopia” (J Nat Prod, 2019):
# Calls of active or inactive are those of the source. No cut-off for these calls is given here.
# How the values were obtained:
# [1] = test system: Huh-7; assay: Inhibition of oleic acid-induced triglyceride accumulation in human HuH7 cells up to 50 uM after 24 hrs by Oil Red O staining based assay; type: functional, cell-based
# [2] = test system: Huh-7; assay: Cytotoxicity against human HuH7 cells after 24 hrs by LDH release assay; type: cell-based; conditions: huh-7, 24 h
# [3] = test system: Huh-7; assay: Inhibition of oleic acid-induced triglyceride accumulation in human HuH7 cells after 24 hrs; type: functional, cell-based
SMILES,inhibition [1],Activity [2],inhibition [3]
CC(=O)C(C)(C)/C=C/[C@@H](C)[C@@]1(O)C(=O)[C@H]2[C@@H](C=C[C@@H]2C)[C@H](C)[C@@H]1O,Active,Non-Toxic,Dose-dependent effect
CC(=O)C(C)(C)/C=C/[C@H](C)[C@@]1(O)C(=O)[C@H]2[C@@H](C=C[C@@H]2C)[C@H](C)[C@@H]1O,Active,Non-Toxic,Dose-dependent effect
